Tests used:
E. coli ATCC 8739 = assay: In vivo antibiotic efficacy by ELLecSA in rats infected intraperitoneally; details: for ELLecSA levels, increase over baseline (no antibiotic): rats, 2e9 CFU i.p., antibiotic 100 μg/kg at 4 hours, terminal blood draw 8 hours after infection; for ELLecSA signal in treated group vs sham treatment: wistar rats, treatment four hours after infection, blood draw after another four hours
E. cloacae = assay: Antibiotic treatment of E. cloacae tracked by FcMBL ELLecSA detection of MAMPs; details: for treatment efficacy from increase or spike in ELLecSA signal over time: 24-hr time course, E. cloacae 10e8 CFU/ml, 1 mg/ml antibiotic; for susceptibility of E. cloacae to the antibiotic: as stated for the test pathogen
[1] = system: clinical isolate of E. coli; assay: Antibiotic treatment of clinical isolate of E. coli, MAMP detection by ELLecSA; assay type: cell-based; details: FIG. 16D strain
Experimental: FIGS. 16A-16E show lysing microbes by antibiotic treatment to increase MAMPs for FcMBL-coated bead capture and ELLecSA detection. In FIG. 16A, FcMBL coated beads were used to detect the presence of MAMPs from a clinical isolate of Enterobacter cloacae after 4 hour treatments of cefepime and meropenem. Detection of MAMPs was done by ELLecSA using rhMBL-hrp. In FIG. 16B, FcMBL coated beads were used to detect the presence of MAMPs from a clinical isolate of Salmonella typhimurium after 4 hour treatments of cefepime. Detection of MAMPs was done by ELLecSA using rhMBL-hrp. In FIG. 16C, FcMBL coated beads were used to detect the presence of MAMPs from a clinical isolate of E. coli after 4 hour treatment of cefepime and amikacin. Detection of MAMPs was done by ELLecSA using rhMBL-hrp. In FIG. 16D, FcMBL coated beads were used to detect the presence of MAMPs from a clinical isolate of E. coli after 4 hour treatment of cefepime and amikacin. Detection of MAMP's was done by ELLecSA using rhMBL-hrp. […]. Time course antibiotics were administered. Optimal MAMP detection occurred at 4 hours with 100 ug/mL cefepime.

[2] = system: amp-C mutant Enterobacter cloacae; assay: Time course antibiotic treatment of amp-C mutant Enterobacter cloacae, MAMP detection by ELLecSA; assay type: cell-based; details: 100 μg/mL antibiotic

`C[C@@H](O)[C@H]1C(=O)N2C(C(=O)O)=C(S[C@@H]3CN[C@H](C(=O)N(C)C)C3)[C@H](C)[C@H]12` [meropenem] was tested, and the “ELLecSA levels, increase over baseline (no antibiotic)” value (E. coli ATCC 8739) was 2 fold and the “ELLecSA signal in treated group vs sham treatment” value (E. coli ATCC 8739) was “significant increase”.
With `Cc1nnc(SCC2=C(C(=O)O)N3C(=O)[C@@H](NC(=O)Cn4cnnn4)[C@H]3SC2)s1` [cefazolin] the “treatment efficacy from increase or spike in ELLecSA signal over time” value (E. cloacae) was “ineffective” and the “susceptibility of E. cloacae to the antibiotic” value (“susceptibility of E. cloacae” below) (E. cloacae) was “resistant”.
`CO/N=C(\C(=O)N[C@@H]1C(=O)N2C(C(=O)[O-])=C(C[N+]3(C)CCCC3)CS[C@H]12)c1csc(N)n1` [cefepime] was tested, and the “susceptibility of the E. coli strain” value [1] was “intermediate susceptibility”, the “ELLecSA levels, increase over baseline (no antibiotic)” value (E. coli ATCC 8739) was “six” and the “ELLecSA signal in treated group vs sham treatment” value (E. coli ATCC 8739) was “significant increase”.
For `CO/N=C(\C(=O)N[C@@H]1C(=O)N2C(C(=O)O)=C(CSc3nc(=O)c(=O)[nH]n3C)CS[C@H]12)c1csc(N)n1` [ceftriaxone], the “treatment efficacy from increase or spike in ELLecSA signal over time” value (E. cloacae) was “effective”, the “time to MAMP release after addition of the active antibiotic” value (E. cloacae; about 5e7 CFU Enterobacter cloacae) was at most 30 min and the “susceptibility of E. cloacae” value (E. cloacae) was “susceptible”.
`NCC[C@H](O)C(=O)N[C@@H]1C[C@H](N)[C@@H](O[C@H]2O[C@H](CN)[C@@H](O)[C@H](O)[C@H]2O)[C@H](O)[C@H]1O[C@H]1O[C@H](CO)[C@@H](O)[C@H](N)[C@H]1O` [amikacin] was tested, and the “susceptibility of the E. coli strain” value [1] was “sensitive”.
With `CC(=O)OCC1=C(C(=O)O)N2C(=O)[C@@H](NC(=O)Cc3cccs3)[C@H]2SC1` [Cefalotin] the “susceptibility of E. cloacae” value (E. cloacae) was “naturally resistant”.
For `CC(C)(O/N=C(\C(=O)N[C@@H]1C(=O)N2C(C(=O)[O-])=C(C[n+]3ccccc3)CS[C@H]12)c1csc(N)n1)C(=O)O` [ceftazidime], the “susceptibility of amp-C mutant E. cloacae” value [2] was “resistant”.

From patent US12553892B2, “Assays for antimicrobial activity and applications thereof” (PRESIDENT AND FELLOWS OF HARVARD COLLEGE, priority 2013, dated 2026)
